Several values for one entry are separate records, joined by “and”; a condition that tells them apart may be missing. Equal entries are not always repeated.
How the values were obtained:
H22-luc = H22-luc orthotopic model, 3 mpk, IG, QW × 3, BLI 21 days post-dose, P < 0.0001
Procedure: The cells were placed in an incubator at 37 °C with 5% CO2 and passaged every 1 to 2 days depending on the cell density.
The cell concentration (H22-luc, 2.0E8/mL) was adjusted, and the cells were mixed well with Matrigel at a ratio of 1:1. The mixture was placed on ice for subsequent injection experiments, and was mixed thoroughly by shaking with Vortex before use.
• (1) The mice were weighed before surgery and anesthetized by intraperitoneal injection of avertin at 0.15 mL/10 g body weight. […] The needle was inserted into the liver at a 30-degree angle relative to the liver surface. After the needle was inserted, the needle was made parallel to the tabletop and advanced in parallel for about 3 mm. 10 µL of H22-luc cell suspension was slowly injected, and a rapid whitening (white plaque) or turbid translucent vacuolation over most of the liver lobe in the injection area was observed. • (5) After injection, a cotton swab was used to apply slight pressure at the needle insertion site while the needle was slowly withdrawn. The cotton swab was removed until no bleeding was observed. • (6) The liver lobe was gently pushed back into the abdominal cavity, and the muscle layer and skin were sutured.
The experimental data were analyzed using Graphpad Prism 8. The experimental data were expressed as mean ± SD.

in vitro = conditions: human, microsomes, pH 7.4
Procedure: (§4) The metabolic stability of the compounds in in vitro liver microsomes was evaluated. The procedures and steps were as follows: At 37 °C, 1 µM of the compounds was incubated in 1 mg/mL liver microsomes. The reaction system was a 0.1 M potassium phosphate buffer (pH 7.4) containing 3 mmol/L MgCl2 and 1 mmol/L NADPH. At the beginning of the reaction, the small molecules and the liver microsomes were pre-incubated at 37 °C for 10 min, and subsequently a cofactor NADPH was added to initiate the metabolic reaction. The reaction was quenched at 0 min, 5 min, 10 min, 20 min, 30 min, and 60 min using three volumes of ice-cold methanol containing an internal standard (200 nM labetalol). After incubation at room temperature for 10 min, the samples were centrifuged at 4000 rpm at 4 °C for 20 min, and the supernatants were collected, diluted with chromatography-grade purified water in a 1:1 ratio, and then subjected to quantitative analysis. […] After a 6-minute chromatographic separation on a C18 column (50 × 2.1 mm; 2.6 µm) under a gradient mobile phase of 0.1% formic acid in water, the peaks corresponding to specified ionic signals were detected. […] The detailed operation process was as follows: • 1) The compound working solution was added to all 96-well reaction plates (T0, T5, T10, T20, T30, and T60) at 10 µL/well, except the blank wells. • 2) The microsomal solution was added to all the reaction wells (T0, T5, T10, T20, T30, T60, and blank wells) at 80 µL/well. • 3) The plates were pre-incubated at 37 °C for 10 min. • 4) After pre-incubation, NADPH was added to each reaction plate at 10 µL/well to initiate the reaction. • 5) At the set end time point, a 4 °C methanol solution (containing an internal standard: 200 nM labetalol) was added to each reaction plate at 300 µL/well to quench the reaction. • 6) Each plate was sealed and shaken for 10 min. • 7) The mixture was shaken well and centrifuged at 4000 rpm at 4 °C for 20 min. • 8) 300 µL of the supernatant was collected, and HPLC-grade water was added at 300 µL/well. The mixture was well mixed and then subjected to LC-MS analysis.
(§5) The metabolic half-life (T1/2) and the metabolic clearance rate (CLint(mic)) (µL/min/mg) were calculated using a first-order kinetic equation.

hERG potassium channel = hERG potassium channel (Homo sapiens, UniProt Q12809); assay: hERG whole-cell patch-clamp; format: cell-based; conditions: whole-cell patch-clamp; read-out: hERG (IC50)
From the text: The rapidly activated potassium channel encoded by human ether-a-go-go-related gene (hERG) is an important ion channel involved in the formation of cardiac action potential phase 3 repolarization. Drug-induced blockade of hERG channels can lead to delayed cardiac repolarization, manifested as QT interval prolongation on the electrocardiogram, known as long QT syndrome. Drug-induced delayed ventricular repolarization may, under certain circumstances, trigger fatal arrhythmias-torsade de pointes-type ventricular tachycardia. In this study, the whole-cell patch-clamp technique (the standard method for hERG safety assessment) was employed to evaluate the inhibitory effects of the small-molecule compounds on the hERG potassium channel and to assess the risk of ventricular repolarization toxicity.

Hep3B-luc = Hep3B-luc liver orthotopic xenograft mouse model; conditions: Hep3B-luc liver orthotopic tumor model, 3 mg/kg
[1] = Solubility in phosphate buffer at pH 7.4
[2] = 3/10/20 mpk i.g., livers collected 1 h, 2 h, 4 h post-dose
Procedure: (§1) C57BL/6J wild-type female mice (6 weeks old) were randomly grouped. After administration at different doses, whole blood and liver tissues of the mice were separately collected at 1 h, 2 h, and 4 h for detection of a plurality of parameters to evaluate the effect of the drugs on the liver.
(§2) Liver tissues and blood were collected at 1 h, 2 h, and 4 h after single dosing.
(§3) The supernatant was collected and stored (-20 °C); • (3) IFN-α, IP-10, IL-6, and TNF-α were detected using an ELISA kit. • (C) Remaining liver tissue-HE staining and pathological evaluation. • (D) 1/2 blood (whole blood)-liver function parameter detection: AST (aspartate aminotransferase), ALT (alanine aminotransferase/glutamate pyruvate transaminase), ALP (alkaline phosphatase), ALB (albumin), and GGT (γ-glutamyl transferase). • (E) 1/2 blood-serum preparation-reserve for ELISA.

[3] = system: IFN-α, IP-10, IL-6, and TNF-α; assay: Liver safety: cytokine ELISA in liver tissue; format: in vivo, C57BL/6J wild-type female mice
Procedure: as §1, §2, §3

[4] = Liver tissue distribution after single intragastric administration; conditions: 10 mg/kg single intragastric, ICR mice; for AUC(0-t) at 24 h: mouse, in vivo, po, 10 mg/kg, area under curve at 24 h post-dose
Procedure: The specific regimen was as follows: Before administration, the state of the formulation for administration was inspected, and the homogeneity of the formulation was ensured by vortexing, stirring, or shaking. The theoretical dose for each mouse was calculated according to the following formula. The actual dose for each ICR mouse and the collection time for plasma and tissue samples were required to be recorded in detail in corresponding tables. Theoretical administration volume (mL) = ((Dose(mg⋅kg^−1))/(Concentration of test solution (mg⋅((mL))^−1))) × Animal body weight (kg) [formula]
Plasma sample collection: At each designated time point, about 100 µL of blood was collected from the orbit, and the collected whole blood was placed in an EDTA-K2 anticoagulation tube, inverted several times to mix thoroughly, stored on wet ice, and centrifuged (at 1500 g to 1600 g) for 10 min within 30 min to separate the plasma. The resulting plasma sample was stored at -40 °C to -20 °C for biological sample analysis.
The specific procedures for liver tissue collection were as follows: Liver tissues were collected immediately after whole blood collection. The liver tissues were collected, washed with ice-cold normal saline, dehydrated, weighed, and homogenized in 20% methanol-water at a ratio of 1:5 (w/v). The collection time of tissues and the weight of homogenized tissues were required to be recorded in detail in corresponding tables.
The plasma and various tissue homogenates were stored in a refrigerator at -40 °C to -20 °C for sample analysis. After the experiment was completed, the mice were euthanized by carbon dioxide asphyxiation or cervical dislocation. After the analysis was completed, the samples were returned to the biological sample room, and transferred to an environment at -40 °C to -20 °C for storage according to SOP-SM-001.
The corresponding pharmacokinetic parameters of plasma and liver tissues were calculated using a non-compartmental model in Phoenix WinNonlin 8.0 or later versions, and the area under curve AUC0-t (AUC0-t, the area under the concentration-time curve at 24 h post-dose) was calculated. The liver/plasma drug distribution ratio (RL/P) was then calculated.

[5] = system: ISG15, ISG56, Mx1, and Oaslb; assay: Liver safety: qPCR of interferon-related genes in liver tissue; format: in vivo, C57BL/6J wild-type female mice
Procedure: as §1, §2, §3

[6] = Liver microsome metabolic stability (human); conditions: Human liver microsomes, 1 µM compound, 1 mg/mL, NADPH, 37 °C
Procedure: as §4, §5

hERG potassium channel, sequence (Q12809 whole entry): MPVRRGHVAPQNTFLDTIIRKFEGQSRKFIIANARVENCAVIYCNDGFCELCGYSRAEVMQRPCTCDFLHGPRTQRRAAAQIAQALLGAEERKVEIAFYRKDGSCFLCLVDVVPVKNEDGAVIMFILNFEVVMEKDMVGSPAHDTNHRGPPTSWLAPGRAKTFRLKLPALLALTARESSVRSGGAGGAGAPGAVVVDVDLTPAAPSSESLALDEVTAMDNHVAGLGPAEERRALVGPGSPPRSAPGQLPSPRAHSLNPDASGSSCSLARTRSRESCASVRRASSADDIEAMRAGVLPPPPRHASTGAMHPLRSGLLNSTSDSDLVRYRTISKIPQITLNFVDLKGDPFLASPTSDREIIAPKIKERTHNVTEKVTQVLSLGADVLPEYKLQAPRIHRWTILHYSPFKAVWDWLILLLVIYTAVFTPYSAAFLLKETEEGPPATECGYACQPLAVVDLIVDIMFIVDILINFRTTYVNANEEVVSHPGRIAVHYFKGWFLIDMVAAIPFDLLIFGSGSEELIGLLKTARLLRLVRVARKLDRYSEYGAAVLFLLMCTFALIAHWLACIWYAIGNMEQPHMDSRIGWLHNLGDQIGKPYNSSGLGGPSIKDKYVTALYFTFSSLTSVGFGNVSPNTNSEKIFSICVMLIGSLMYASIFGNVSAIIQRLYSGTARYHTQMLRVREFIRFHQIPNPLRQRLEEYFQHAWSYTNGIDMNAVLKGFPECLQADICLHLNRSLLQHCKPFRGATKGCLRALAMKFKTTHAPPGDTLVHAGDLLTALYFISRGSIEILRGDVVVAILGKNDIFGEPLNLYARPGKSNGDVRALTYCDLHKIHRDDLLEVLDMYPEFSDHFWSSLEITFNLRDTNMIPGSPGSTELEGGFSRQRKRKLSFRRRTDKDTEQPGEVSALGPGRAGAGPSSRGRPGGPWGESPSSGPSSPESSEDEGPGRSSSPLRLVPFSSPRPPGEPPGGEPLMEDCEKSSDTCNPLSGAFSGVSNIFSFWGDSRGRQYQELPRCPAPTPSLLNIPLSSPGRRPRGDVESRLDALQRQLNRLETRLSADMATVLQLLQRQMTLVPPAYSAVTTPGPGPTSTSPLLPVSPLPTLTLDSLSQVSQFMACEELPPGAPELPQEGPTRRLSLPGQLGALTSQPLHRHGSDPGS

COCCNc1nc(N)nc2ccc(Cc3ccc(CN4CCOCC4)cc3)nc12 [Compound II]
TGI (H22-luc): 83.4%
half-life at 1 µM (in vitro): 35.1 min
microsomal CLint at 1 µM (in vitro): 39.5 µL/min/mg
IC50 (hERG potassium channel): 4.3 µM and > 10 µM
maximum body weight loss (Hep3B-luc): 5.4%
TGI (Hep3B-luc; IG, QW × 3, p < 0.05): 61.6%
solubility improvement compared with N01(D18) [1]: about 10 fold
Liver HE staining [2]: did not cause apparent pathological damage to the liver tissues
expression levels of IL-6, TNF-α, IFN-α, and IP-10 ([3]; 3/10/20 mpk groups i.g. single dose, 1 h, 2 h, 4 h): all peaked at 2 h, and decreased at 4 h
IP-10 (CXCL-10) secretion ([3]; i.g. single dose): significantly induced
AUC0-t ratio (liver/plasma) [4]: 114
liver/plasma drug distribution ratio [4]: 114 fold
Drug concentration ratio (liver/plasma) ([4]; 0.25h): 610
Mean drug concentration (liver) ([4]; 0.25h): 30980 ng/g
Mean drug concentration (plasma) ([4]; 0.25h): 50.8 ng/mL
Drug concentration ratio (liver/plasma) ([4]; 1 h): 134
Mean drug concentration (liver) ([4]; 1 h): 8780 ng/g
Mean drug concentration (plasma) ([4]; 1 h): 65.6 ng/mL
Drug concentration ratio (liver/plasma) ([4]; 4h): 71.3
Mean drug concentration (liver) ([4]; 4h): 1990 ng/g
Mean drug concentration (plasma) ([4]; 4h): 27.9 ng/mL
Drug concentration ratio (liver/plasma) ([4]; 24h): 79.4
Mean drug concentration (liver) ([4]; 24h): 327 ng/g
Mean drug concentration (plasma) ([4]; 24h): 4.12 ng/mL
AUC(0-t) at 24 h ([4]; AUC0-t (liver)): 58100 ng·h/mL
AUC(0-t) at 24 h ([4]; AUC0-t (plasma)): 510 ng·h/mL
relative expression levels of ISG15, ISG56, Mx1, and oas1b ([5]; 3/10/20 mpk i.g. single dose, 1 h to 4 h): increased over time, and peaked at 4 h
mRNA expression level of interferon-related genes ([5]; dose of 3 mpk (pharmacodynamic dose)): significantly induced an increase
k [6]: 0.0197 L/min
maximum body weight loss rate (MC38-luc; MC38-luc liver metastasis model, compound II 3 mpk IG QW × 3, PD-1 10 mpk IP BIW × 2): 3.9%
TGI (MC38-luc; MC38-luc liver metastasis model, compound II 3 mpk IG QW × 3, PD-1 10 mpk IP BIW × 2, 17 days post-dose): 63.3%
CD8+ T cells in peripheral lymph nodes (MC38-luc; flow cytometry, compared with vehicle group): no significant difference
Kuffer cells in the liver tissue (MC38-luc; flow cytometry, compared with vehicle group and PD-1 antibody group): significantly induced an increase

Source: patent EP4732839A1, “USE OF COMPOUND IN TREATMENT OF LIVER DISEASES” (priority 2023, dated 2025)
